Measured values taken from PMC13125297, “Portable geosmin detection system based on sensor cells expressing insect odorant receptors” (Scientific Reports, 2026).
pEC50: −log10 of the molar value.

Tests used:
Or56a = target: T1, Or56a (Drosophila melanogaster, UniProt Q9V8Y7); test: GCaMP6s calcium imaging in Sf21 cells co-expressing Or56a and Orco, dose-response; assay type: cell-based
T1 construct: with Orco

Or13a = target: T2, Or13a (Drosophila melanogaster, UniProt Q9VXL0); test: GCaMP6s calcium imaging in Sf21 cells co-expressing Or13a and Orco, dose-response; assay type: cell-based
T2 construct: wild-type Or13a stably expressed in Sf21 cells (clone Or13a-WT-C4); with Orco
T2 sequence (Q9VXL0 1-418): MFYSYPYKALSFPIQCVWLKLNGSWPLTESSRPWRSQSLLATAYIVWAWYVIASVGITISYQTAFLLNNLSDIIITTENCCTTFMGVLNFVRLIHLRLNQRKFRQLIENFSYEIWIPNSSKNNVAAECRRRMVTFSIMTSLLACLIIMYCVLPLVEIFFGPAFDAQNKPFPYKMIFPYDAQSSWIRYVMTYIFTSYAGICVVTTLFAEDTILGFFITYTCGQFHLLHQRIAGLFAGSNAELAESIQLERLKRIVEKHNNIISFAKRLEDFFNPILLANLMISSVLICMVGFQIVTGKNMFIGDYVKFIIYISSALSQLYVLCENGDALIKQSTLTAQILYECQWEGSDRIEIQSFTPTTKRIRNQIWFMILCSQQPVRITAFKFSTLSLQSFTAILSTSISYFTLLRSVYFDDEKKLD
T2 sequence (Q9VNB5 1-486 partner): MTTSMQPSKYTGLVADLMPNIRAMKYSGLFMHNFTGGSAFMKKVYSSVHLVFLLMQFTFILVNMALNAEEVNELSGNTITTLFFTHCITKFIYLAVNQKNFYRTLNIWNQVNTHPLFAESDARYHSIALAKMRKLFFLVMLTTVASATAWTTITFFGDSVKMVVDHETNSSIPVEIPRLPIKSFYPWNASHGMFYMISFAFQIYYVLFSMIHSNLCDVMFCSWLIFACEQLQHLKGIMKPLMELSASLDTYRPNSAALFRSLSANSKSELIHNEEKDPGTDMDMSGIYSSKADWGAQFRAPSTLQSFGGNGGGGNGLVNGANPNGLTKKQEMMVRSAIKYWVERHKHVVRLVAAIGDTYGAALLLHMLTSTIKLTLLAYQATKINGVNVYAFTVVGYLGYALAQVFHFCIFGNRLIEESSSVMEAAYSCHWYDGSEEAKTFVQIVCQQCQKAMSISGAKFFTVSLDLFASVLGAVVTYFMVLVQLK

T1 sequence (Q9V8Y7 whole entry, one chain of several): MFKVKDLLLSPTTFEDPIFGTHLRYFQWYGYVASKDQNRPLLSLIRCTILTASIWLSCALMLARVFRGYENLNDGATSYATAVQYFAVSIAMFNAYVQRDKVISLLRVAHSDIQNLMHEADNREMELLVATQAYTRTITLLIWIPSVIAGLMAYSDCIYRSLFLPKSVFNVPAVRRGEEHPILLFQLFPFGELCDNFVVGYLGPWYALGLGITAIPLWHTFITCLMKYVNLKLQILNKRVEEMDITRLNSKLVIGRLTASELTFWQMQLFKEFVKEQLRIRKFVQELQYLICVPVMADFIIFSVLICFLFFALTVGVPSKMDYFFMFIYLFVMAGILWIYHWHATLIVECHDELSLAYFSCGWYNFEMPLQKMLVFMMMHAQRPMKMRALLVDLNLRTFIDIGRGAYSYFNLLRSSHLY

Row | pEC50 (Or56a) | pEC50 (Or13a) | SMILES
1 | 6.20 | – | CC1CCCC2(C)CCCCC12O (stereo not drawn) [geosmin, trans-1,10-dimethyl-trans-9-decalol]
2 | – | 5.46 | C=CC(O)CCCCC (centres unmarked) [1-octen-3-ol]
